Measurements as given in patent publication US11091444B2, “Hydantoins that modulate BACE-mediated app processing” (BUCK INSTITUTE FOR RESEARCH ON AGING, priority 2013, dated 2021).
Where two headings read alike, the source gives them in different places.

Key:
TRX-eAPP575-624 = TRX-eAPP575-624 (Homo sapiens (Human), UniProt P05067); assay: SPR (Biacore) binding to APP ectodomain fragment
Protocol: The binding affinity of the compounds for the ectodomain of APP was determined using SPR. […] The eAPP was crosslinked linked to the CM5 Biacore chips (GE Healthcare).
FC1 served as a reference cell following a mock immobilization with buffer alone. For all cells, the flow rate was 10 al per min. The chip was blocked with 1M ethanolamine (pH 8.5). […] Binding traces were recorded for each dilution with a binding phase of 60 seconds and a dissociation phase of 240 seconds. Each cycle was performed at 20° C. with a constant flow rate of 20 l/min. An additional 240 seconds of buffer flow at 60 al per min across the cells was applied as a regeneration phase to facilitate complete dissociation of the compound from the protein. The sensograms were obtained by subtraction of the reference and buffer signals using the Biacore T100 Evaluation software. The binding curves were modeled with the PRISM (Graphpad Inc).

sAPP alpha = assay: Secondary screen: sAPP alpha; type: cell-based; conditions: for sAPP alpha: increase (↑); for sAPP (α/β): increase (↑) of ratio
sAPP beta = assay: Secondary screen: sAPP beta; type: cell-based; conditions: decrease (↓)
Aβ1-42 = Aβ1-42 ELISA in SH-SY5Y neuroblastoma cells; type: cell-based, human; conditions: for IC50: Homo sapiens, SH-SY5Y, secondary screen
Protocol: SH-SY5Y neuroblastoma cells were seeded at 50,000 cells/well in a 96 wells plate for 24 h. Then their medium was changed for fresh medium supplemented with desired concentration of the hydantoin compound (e.g. compound 3). After 24 h, 20 al of the medium was added to 2 al of the complete protease inhibitor with 1 μM EDTA and kept at 4° C. until analysis using the ELISA assay below.
ELISA kits from Invitrogen were also used to quantify Aβ1-42 (KHB3544) in duplicate. For the Aβ 1-42 ultrasensitive ELISA, samples were diluted 1:2 (50 al CSF plus 50 μl kit-provided standard diluent buffer). Assays were performed according to manufacturer's instructions. In short, standards and samples were added to a plate pre-coated with a monoclonal capture antibody specific for the amino terminus of Hu Aβ. The samples were co-incubated with a rabbit detection antibody (Ab) specific for the carboxy terminus of the Aβ species being assayed for 3 hr at room temperature overnight at 4° (Aβ 1-42) with gentle rocking. After washing, bound rabbit Ab was detected using a horseradish peroxidase-labeled anti-rabbit secondary Ab. After washing again, bound HRP-anti rabbit Ab was detected colorimetrically (Spectramax 190, Molecular Devices) by the addition of a substrate solution. 1 mM 4-(2-Aminoethyl) benzenesulfonyl fluoride hydrochloride (AEBSF) protease inhibitor (101500, Calbiochem) was added to standards and samples.

Aβ42 = assay: Aβ lowering in NTg mice; type: in vivo; conditions: 1 mpk
Protocol: Compound 2 and other hydantoins were produced (see, e.g., compounds 1-5 pharmacokinetic evaluation of these hydantoins was determined in brain uptake assays using NTg mice (see, e.g., Table 1). It was also determined that Compound 1 lowered Aβ42 in the same animals at 5 mpk, while compound 3 lowered Aβ at 1 mpk.

NRG1-BACE1 = NRG1-BACE1 (Homo sapiens (Human), UniProt P56817); assay: NRG1-BACE cleavage in transfected HEK 293 cells (SEAP/lacZ); type: cell-based
Sequence of NRG1-BACE1 (P56817 46-501): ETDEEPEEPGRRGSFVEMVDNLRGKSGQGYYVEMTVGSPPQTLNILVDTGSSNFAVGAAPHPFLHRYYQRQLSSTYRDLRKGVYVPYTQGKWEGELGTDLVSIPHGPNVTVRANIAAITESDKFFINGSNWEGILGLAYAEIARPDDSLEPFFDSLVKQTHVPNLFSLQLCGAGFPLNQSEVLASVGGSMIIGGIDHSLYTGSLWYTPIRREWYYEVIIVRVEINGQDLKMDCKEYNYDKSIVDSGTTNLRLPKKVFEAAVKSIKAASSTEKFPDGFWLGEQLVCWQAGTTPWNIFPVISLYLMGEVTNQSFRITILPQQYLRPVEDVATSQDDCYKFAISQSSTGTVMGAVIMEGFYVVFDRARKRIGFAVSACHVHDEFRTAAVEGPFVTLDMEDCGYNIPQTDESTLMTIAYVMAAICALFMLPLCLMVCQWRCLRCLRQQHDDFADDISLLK
Protocol: (§1) Briefly, in order to determine the PSGL-1-BACE1 IC50 IC50 HEK 293 cells were plated in 24 well plates and transiently cotransfected with either PSGL1/lacZ or NRG1/lacZ constructs using Lipofectamine 2000; manufacturer protocol was followed. Two hours after adding the DNA-lipid complex to the cells a BACE inhibitor was added to each well, then cells were incubated overnight at 37° C. and 5% CO2. Cultured medium was collected to determine NRG1 or PSGL1, and cells were lysed to measure lacZ levels. Sigma SEAP kit standard protocol was conducted on the cultured medium to detect levels of PSGL1 or NRG1. Promega kit instructions were followed to determine lacZ concentration. The ratio of PSGL1/lacz vs [BACE inhibitor] or were plotted to determine the BACE1-IC50 on each of the substrate using GraphPad Prism 5 (FIG. 6B).

PSGL-1-BACE1 = PSGL-1-BACE1 (Homo sapiens (Human), UniProt P56817); assay: PSGL1-BACE cleavage in transfected HEK 293 cells (SEAP/lacZ); type: cell-based; conditions: APP-BACE vs PSGL1-BACE cleavage
Sequence of PSGL-1-BACE1 (P56817 46-501): as above
Protocol: as §1

Sequence of TRX-eAPP575-624 (P05067 650-699): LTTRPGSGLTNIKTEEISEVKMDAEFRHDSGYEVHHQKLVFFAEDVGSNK

| Structure (SMILES) | Kd (TRX-eAPP575-624) [nM] | Kd (TRX-eAPP575-624; Table 1, SPR, read-out: APP binding Kd) [nM] | sAPP alpha (sAPP alpha) | sAPP (α/β) (sAPP alpha) | sAPP beta (sAPP beta) | IC50 (Aβ1-42) [nM] | Inhibition of Aβ / Aβ42 production (Aβ1-42; SH-SY5Y cells) | Aβ lowering in vivo (Aβ42) | Selectivity for APP over NRG1 (NRG1-BACE1; APP-BACE vs NRG1-BACE cleavage) [fold] | IC50 (NRG1-BACE1; secondary screen, read-out: NRG1-BACD1 IC50) [nM] | Selectivity for APP over PSGL1 (PSGL-1-BACE1) [fold] |
| --- | --- | --- | --- | --- | --- | --- | --- | --- | --- | --- | --- |
| CN1C(=O)C(c2ccccc2)(c2cc(F)cc(F)c2)N=C1N (stereo not drawn) [FAH-1] | 5000 |  |  |  |  |  |  |  |  |  |  |
| Cc1cc(C2(c3cc(F)cc(F)c3)N=C(N)N(C)C2=O)ccc1OC(F)F (stereo not drawn) [FAH-3, 2-amino-4-(4-(difluoromethoxy)-3-methylphenyl)-4-(3,5-difluorophenyl)-1-methyl-1H-imidazol-5(4H)-one] |  | 300 | ↑ > 10% | ↑≈10% | ↓ < 20% | > 1000 | inhibition of Aβ production | lowered Aβ |  |  |  |
| Cc1cc(C2(c3cccc(F)c3)N=C(N)N(C)C2=O)ccc1OC(F)F (stereo not drawn) [FAH-17, 2-amino-4-(4-(difluoromethoxy)-3-methylphenyl)-4-(3-fluorophenyl)-1-methyl-1H-imidazol-5(4H)-one] |  |  | ↑ > 20% | ↑ > 100% | ↓ < 50% | > 1000 |  |  | > 10 | > 1000 | > 200 |
| Cc1cc(F)cc(C2(c3ccc(OC(F)F)c(C)c3)N=C(N)N(C)C2=O)c1 (stereo not drawn) [FAH-22, 2-amino-4-(4-(difluoromethoxy)-3-methylphenyl)-4-(3-fluoro-5-methylphenyl)-1-methyl-1H-imidazol-5(4H)-one] |  |  | ↑ > 10% | ↑≈50% | ↓ < 20% |  |  |  |  |  |  |
| Cc1cc(C2(c3cccc(Cl)c3)N=C(N)N(C)C2=O)ccc1OC(F)F (stereo not drawn) [FAH-23, 2-amino-4-(3-chlorophenyl)-4-(4-(difluoromethoxy)-3-methylphenyl)-1-methyl-1H-imidazol-5(4H)-one] |  |  | ↑ > 20% | ↑ > 50% | ↓ < 20% |  |  |  |  |  |  |
| Cc1cccc(C2(c3ccc(OC(F)F)c(C)c3)N=C(N)N(C)C2=O)c1 (stereo not drawn) [FAH-27, 2-amino-4-(4-(difluoromethoxy)-3-methylphenyl)-1-methyl-4-(m-tolyl)-1H-imidazol-5(4H)-one] |  |  | ↑ > 30% | ↑ > 100% | ↓ < 30% |  |  |  |  |  |  |
| Cc1cc(C2(c3cccc(C(F)(F)F)c3)N=C(N)N(C)C2=O)ccc1OC(F)F (stereo not drawn) [FAH-28] |  |  | ↑ > 20% | ↑ > 50% | ↓ < 20% |  |  |  |  |  |  |
